{
  "source": "PubChem BioAssay AID1963977",
  "about": "(Molecular Pharmacology Branch, DTP, NCI, 2024)",
  "tested_on": "624824-186-R-J3-PDC multicell spheroids, viability",
  "experiment": "Anticancer human tumor 624824-186-R-J3-PDC patient-derived colon adenocarcinoma cell line growth inhibition [PI3K]",
  "conditions": "for viability, T/C: stronger effect = lower value",
  "text": "Combinatorial screen of targeted agents with the PI3K inhibitors inavolisib, alpelisib, duvelisib, and copanlisib in multi-cell type tumor spheroids\nA high-throughput screen of multi-cell type tumor spheroids was designed to identify active combinations of targeted small molecules and PI3K pathway inhibitors. Complex spheroids include a stromal component modeled by human endothelial cells (HUVEC) and fibroblasts modeled by human mesenchymal stem cells (MSCs). The concentration ranges selected for each drug and investigational agent were based upon clinically achievable concentrations if the clinical Cmax of the agent was known.\nCompounds. The drugs and investigational agents: inavolisib (NSC800729), alpelisib (NSC765974), duvelisib (NSC772469), copanlisib (NSC816437), ipatasertib (NSC767898), afuresertib (NSC778305), talazoparib (NSC767125), sapanisertib (NSC764658), selumetinib (NSC741078), tovorafenib (DAY101, NSC766906), vemurafenib (NSC761431), ravoxertinib (NSC781343), sotorasib (NSC818433), MRTX1133 (NSC 836407), abemaciclib (NSC 768073), palbociclib (NSC758247), venetoclax (NSC 766270), SY5609 (NSC837396), enzalutamide (NSC755605), and darolutamide (NSC825331), were obtained from the National Cancer Institute (NCI) Developmental Therapeutics Program Chemical Repository. The FDA-approved anticancer drug set is available from the NCI Developmental Therapeutics Program. […] The stock solutions were prepared in dimethyl sulfoxide (DMSO, Sigma-Aldrich, St. Louis, MO, cat. D2650) at 800-fold the tested concentration and stored at -70 degrees C prior to their use. All drugs and investigational agents were tested over a range starting from a high concentration at or near the clinical Cmax and decreasing in half-log increments. If the clinical Cmax for an agent had not been determined, the highest concentration tested was 10 microM.\nCell Culture. All cells were maintained in an incubator at 37 degrees C and 5% CO2 with 95% humidity. The PDC lines were cultured according to standard operating procedures established by the NCI PDMR (https://pdmr.cancer.gov/sops/default.htm). All PDCs were thawed and cultured in Matrigel-coated flasks prepared with a working solution of 1X Ham's F-12 nutrient mix, without supplementation (Invitrogen, Waltham, MA, cat. 11765054), 100 U/mL penicillin-streptomycin (Invitrogen, cat. 15140122), and 2.5% Matrigel (Corning Inc., Corning, NY, cat. 354248) for the first three passages. The 354836-022-R-J1-PDC, 475296-252-R-J1-PDC, and 997726-040-R-J2-PDC lines were cultured in 6A media, which includes advanced DMEM/F-12 (Thermo Fisher Scientific, cat. 12634028), 10 mM HEPES (Thermo Fisher Scientific, cat. 15630080), 1X GlutaMAX supplement (Thermo Fisher Scientific, cat. 35050061), 0.1 mg/mL primocin (InvivoGen, San Diego, CA, cat. ant-pm-2), 10% defined fetal bovine serum, heat inactivated (HyClone Laboratories Inc., Logan, UT, cat. SH30070.03HI), 50% L-WRN conditioned media (ATCC, cat. CRL-3276), 1.25 mM N-Acetyl-L-cysteine (Sigma-Aldrich, cat. A9165), 10 mM nicotinamide (Sigma-Aldrich, cat. N0636), 1X B-27 supplement (Thermo Fisher Scientific, cat. 17504044), 1X N-2 supplement (Thermo Fisher Scientific, cat. 17502048), and 10 microM Y-27632 dihydrochloride (Tocris Bioscience, Bristol, United Kingdom, cat. 1254). The 624824-186-R-J2-PDC line was cultured in 6C/Colon 1B media, which includes all 6A media components plus 50 ng/mL human EGF recombinant protein (Thermo Fisher Scientific, cat. PHG0311). […]",
  "note": "Values joined by “and” are separate entries in the source; they are usually repeats but may differ in a detail not shown here. Equal entries are not always repeated.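 Note: spheroids exposed to agents for seven days before luminescence read.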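 Throughout, for viability, T/C: luminescent signal used as a stand-in for spheroid viability; percent viability relative to DMSO vehicle control wells taken as 100%.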",
  "data": [
    {"smiles": "Cn1nccc1Nc1nccc(-c2ccn(C(CO)c3ccc(Cl)c(F)c3)c(=O)c2)n1", "note": "(stereo not drawn) + Cc1nc(NC(=O)N2CCCC2C(N)=O)sc1-c1ccnc(C(C)(C)C(F)(F)F)c1", "values": [
      {"measurement": "IC50", "setting": "curve of first compound, second compound 0.0316 µM", "value": 8.08, "unit": "µM"},
      {"measurement": "IC50", "setting": "curve of first compound, second compound 0.1 µM", "value": 5.01, "unit": "µM"},
      {"measurement": "IC50", "setting": "curve of first compound, second compound 0.316 µM", "value": 1.57, "unit": "µM"},
      {"measurement": "IC50", "setting": "curve of first compound, second compound 1 µM", "value": 0.783, "unit": "µM"},
      {"measurement": "IC50", "setting": "curve of first compound, second compound 3.16 µM", "value": 0.223, "unit": "µM"},
      {"measurement": "IC50", "setting": "curve of first compound, second compound 10 µM", "value": 0.1, "unit": "µM"},
      {"measurement": "viability, T/C", "setting": "second compound 0.0316 µM, first compound 0.0316 µM", "value": 119, "unit": "%"},
      {"measurement": "viability, T/C", "setting": "second compound 0.0316 µM, first compound 0.1 µM", "value": 105, "unit": "%"},
      {"measurement": "viability, T/C", "setting": "second compound 0.0316 µM, first compound 0.316 µM", "value": 90.7, "unit": "%"},
      {"measurement": "viability, T/C", "setting": "second compound 0.0316 µM, first compound 1 µM", "value": 74.7, "unit": "%"},
      {"measurement": "viability, T/C", "setting": "second compound 0.0316 µM, first compound 3.16 µM", "value": 55, "unit": "%"},
      {"measurement": "viability, T/C", "setting": "second compound 0.0316 µM, first compound 10 µM", "value": 49.5, "unit": "%"},
      {"measurement": "viability, T/C", "setting": "second compound 0.1 µM, first compound 0.0316 µM", "value": 109, "unit": "%"},
      {"measurement": "viability, T/C", "setting": "second compound 0.1 µM, first compound 0.1 µM", "value": 104, "unit": "%"},
      {"measurement": "viability, T/C", "setting": "second compound 0.1 µM, first compound 0.316 µM", "value": 83.6, "unit": "%"},
      {"measurement": "viability, T/C", "setting": "second compound 0.1 µM, first compound 1 µM", "value": 73, "unit": "%"},
      {"measurement": "viability, T/C", "setting": "second compound 0.1 µM, first compound 3.16 µM", "value": 56.3, "unit": "%"},
      {"measurement": "viability, T/C", "setting": "second compound 0.1 µM, first compound 10 µM", "value": 40.9, "unit": "%"},
      {"measurement": "viability, T/C", "setting": "second compound 0.316 µM, first compound 0.0316 µM", "value": 106, "unit": "%"},
      {"measurement": "viability, T/C", "setting": "second compound 0.316 µM, first compound 0.1 µM", "value": 110, "unit": "%"},
      {"measurement": "viability, T/C", "setting": "second compound 0.316 µM, first compound 0.316 µM", "value": 78, "unit": "%"},
      {"measurement": "viability, T/C", "setting": "second compound 0.316 µM, first compound 1 µM", "value": 58, "unit": "%"},
      {"measurement": "viability, T/C", "setting": "second compound 0.316 µM, first compound 3.16 µM", "value": 42, "unit": "%"},
      {"measurement": "viability, T/C", "setting": "second compound 0.316 µM, first compound 10 µM", "value": 31.8, "unit": "%"},
      {"measurement": "viability, T/C", "setting": "second compound 1 µM, first compound 0.0316 µM", "value": 103, "unit": "%"},
      {"measurement": "viability, T/C", "setting": "second compound 1 µM, first compound 0.1 µM", "value": 89.5, "unit": "%"},
      {"measurement": "viability, T/C", "setting": "second compound 1 µM, first compound 0.316 µM", "value": 72.7, "unit": "%"},
      {"measurement": "viability, T/C", "setting": "second compound 1 µM, first compound 1 µM", "value": 43.2, "unit": "%"},
      {"measurement": "viability, T/C", "setting": "second compound 1 µM, first compound 3.16 µM", "value": 29.6, "unit": "%"},
      {"measurement": "viability, T/C", "setting": "second compound 1 µM, first compound 10 µM", "value": 25.4, "unit": "%"},
      {"measurement": "viability, T/C", "setting": "second compound 3.16 µM, first compound 0.0316 µM", "value": 84.5, "unit": "%"},
      {"measurement": "viability, T/C", "setting": "second compound 3.16 µM, first compound 0.1 µM", "value": 77.7, "unit": "%"},
      {"measurement": "viability, T/C", "setting": "second compound 3.16 µM, first compound 0.316 µM", "value": 37.6, "unit": "%"},
      {"measurement": "viability, T/C", "setting": "second compound 3.16 µM, first compound 1 µM", "value": 21.3, "unit": "%"},
      {"measurement": "viability, T/C", "setting": "second compound 3.16 µM, first compound 3.16 µM", "value": 17.8, "unit": "%"},
      {"measurement": "viability, T/C", "setting": "second compound 3.16 µM, first compound 10 µM", "value": 16.2, "unit": "%"},
      {"measurement": "viability, T/C", "setting": "second compound 10 µM, first compound 0.0316 µM", "value": 62.2, "unit": "%"},
      {"measurement": "viability, T/C", "setting": "second compound 10 µM, first compound 0.1 µM", "value": 50.4, "unit": "%"},
      {"measurement": "viability, T/C", "setting": "second compound 10 µM, first compound 0.316 µM", "value": 27.3, "unit": "%"},
      {"measurement": "viability, T/C", "setting": "second compound 10 µM, first compound 1 µM", "value": 14.1, "unit": "%"},
      {"measurement": "viability, T/C", "setting": "second compound 10 µM, first compound 3.16 µM", "value": 10.9, "unit": "%"},
      {"measurement": "viability, T/C", "setting": "second compound 10 µM, first compound 10 µM", "value": 7.57, "unit": "%"}
    ]},
    {"smiles": "Cn1ncc(Cl)c1-c1cc(C(=O)NC(CN)Cc2cccc(F)c2)sc1Cl", "note": "(stereo not drawn)", "values": [
      {"measurement": "viability, T/C", "setting": "compound 0.0316 µM", "value": "104% [middle of 4 runs]"},
      {"measurement": "viability, T/C", "setting": "compound 0.1 µM", "value": "101% (2×) and 112% and 104%"},
      {"measurement": "viability, T/C", "setting": "compound 0.316 µM", "value": "95.1% [middle of 4 runs]"},
      {"measurement": "viability, T/C", "setting": "compound 1 µM", "value": "76.3% [middle of 4 runs]"},
      {"measurement": "viability, T/C", "setting": "compound 3.16 µM", "value": "67.9% [middle of 4 runs]"},
      {"measurement": "IC50", "setting": "curve of compound", "value": "8.4 µM and > 10 µM and 5.42 µM"}
    ]}
  ]
}
